Here are results for 4 compounds from patent US20090060873A1, “Novel synthetic triterpenoids and methods of use in the treatment and prevention of multiple scleroris” (Reata Pharmaceuticals, Inc., priority 2007, published 2009).

Structures are written as SMILES. “Also recorded” adds a separate entry of the source.

Series [1] deals with MOG-induced EAE. The series can be described thus: Prophylactic treatment in MOG EAE model. It counts as in vivo, mouse. Conditions: 100 nanomoles IP, pre and/or post MOG (Day -1, 1, 3, 5); FIGS. 23, 24. On the procedure:
FIGS. 23 & 24—Prophylactic Treatment of CDDO-Me (RTA 402) or CDDO-TFEA (RTA-404) Delays Induction of Symptoms in Model of Multiple Sclerosis.
In prophylactic studies (FIGS. 23-24) the following design was used:
Day-1: 100 nanomoles IP RTA 404 (2.9 mg/kg) or RTA 402 (2.5 mg/kg) in pre and pre/post groups
Day 1: 100 nanomoles IP RTA 404 (2.9 mg/kg) or RTA 402 (2.5 mg/kg) in post and pre/post groups
Day 3: 100 nanomoles IP RTA 404 (2.9 mg/kg) or RTA 402 (2.5 mg/kg) in post and pre/post groups
Day 5: 100 nanomoles IP RTA 404 (2.9 mg/kg) or RTA 402 (2.5 mg/kg) in post and pre/post groups

Series [2] relates to MOG-induced EAE. The series can be described thus: MOG-induced rapidly progressive EAE model, treatment, clinical score. It counts as in vivo, mouse. Conditions: 100 nmol (~2.8 mg/kg) IP, Q2Dx4, in 7.5% PBST, n=2/group.
The nature of series [3]: Brain levels of triterpenoids in mice fed compound in diet (LC/MS).
Series [4] is described as follows: Tissue distribution of CDDO-Me in cynomolgus monkeys after 3 days of oral dosing. It counts as in vivo. The following applies: cynomolgus monkey, about 3 h after last dose, sesame oil vehicle. On the procedure: Experiments using CDDO-Me (RTA-402) were also conducted on 1 male and 1 female cynomolgus monkey (origin: Vietnam) between the ages of 2 and 3 years and weighing approximately 1.7 kg. Each received the test article (CDDO-Me in sesame oil) at 75 mg/kg/day via oral gavage administered at a volume of 5 mL/kg on Days 1, 2, and 3. Individual doses were based on the most recently obtained body weights. Blood samples were collected from the femoral artery/vein for determination of the plasma concentrations of the test article at 0.5, 1.5, 3, and 12 hours after dosing on Days 1 and 2 and at 0.5, 1.5, and 3 hours after dosing (±0.5 hour) on Day 3.
At the termination of the study (approximately three hours after dosing on Day 3), all animals were euthanized and tissues collected. Samples (approximately 1 g or greater) of the adipose tissue, brain, colon, cheek pouch (buccal mucosa), heart, ileum, kidney, liver, lung, mammary glands, ovaries, pancreas, prostate, and bone marrow from the femur (as much as possible) were collected and frozen at approximately −20° C. for analysis for the presence of the test article. All other tissues and organs were discarded.
In Table 1 nM is ng/mL×1000/505.8, where 505.8 is the molecular weight of RTA-402 using the approximation that the density of the tissue is that of water.

The next series relates to NF-κB. The following applies: NF-κB activated by TNF, IL-1β, phorbol ester, okadaic acid, hydrogen peroxide, LPS, cigarette smoke; cited from earlier work.
Another series concerns heme oxygenase-1 (HO-1). The following applies: nanomolar concentrations; cited from earlier work.

As for `COC(=O)[C@]12CCC(C)(C)C[C@H]1[C@H]1C(=O)C=C3[C@@]4(C)C=C(C#N)C(=O)C(C)(C)[C@@H]4CC[C@@]3(C)[C@]1(C)CC2` [CDDO-Me], in the series with MOG-induced EAE [1], the “delay of development of clinical scores” value is on record as “modestly delayed”. In the series with MOG-induced EAE [2], the “recovery of clinical score (CS 0 no symptoms, 6 quadriplegia)” value is reported as “induce full recovery of mice”. For the same compound, the “recovery of clinical score (CS 0 no symptoms, 6 quadriplegia)” value with MOG-induced EAE [2] (listed as RTA 402) is recorded as “induce complete recovery of symptoms after initial relapse”. The “recovery of clinical score (CS 0 no symptoms, 6 quadriplegia)” value in the series on MOG-induced EAE [2] (listed as RTA-402) is “Induce Full Recovery of Mice; also recorded: Treated Animals Recover”. Besides, the “level of compound in mouse brain” value in series [3] (fed very low levels in diet for one week (100 mg/kg diet), FIG. 1) is “able to reach appreciable levels in the brain; also recorded: Detectable in the Brains of Mice”. Besides, in series [4], the “average tissue concentration, Breast” value was 4,389 nM; the “average tissue concentration, Colon” value was 4,467 nM; the “average tissue concentration, Kidney” value is 1,603 nM; the “average tissue concentration, Liver” value is 926 nM. Also, in series [4], the “average tissue concentration, Lung” value was 4,992 nM; the “average tissue concentration, Ovary” value is listed as 2,115 nM; the “average tissue concentration, Prostate” value is recorded as 4,446 nM; the “tissue concentration, Brain (range of results obtained)” value fell in the range of 215 to 447 nM. Further, the “inhibition of constitutive and inducible NF-κB” value with NF-κB is “potently inhibits both constitutive and inducible NF-κB”.

Regarding `CNC(=O)[C@]12CCC(C)(C)C[C@H]1C1C(=O)C=C3[C@@]4(C)C=C(C#N)C(=O)C(C)(C)[C@@H]4CC[C@@]3(C)[C@]1(C)CC2` (some centres unmarked) [CDDO-MA], the “concentration in brains of mice” value in series [3] (800 mg/kg diet, 2 or 4 days, FIG. 2) was “Significant Concentrations”.

Take `CC1(C)CC[C@]2(C(=O)n3ccnc3)CC[C@]3(C)[C@H](C(=O)C=C4[C@@]5(C)C=C(C#N)C(=O)C(C)(C)[C@@H]5CC[C@]43C)[C@@H]2C1` [CDDO-Im]: in the series with heme oxygenase-1 (HO-1), the “expression of HO-1” value is “rapidly increase the expression of the cytoprotective heme oxygenase-1 (HO-1) enzyme”.

On to `CC1(C)CC[C@]2(C(=O)O)CC[C@]3(C)[C@H](C(=O)C=C4[C@@]5(C)C=C(C#N)C(=O)C(C)(C)[C@@H]5CC[C@]43C)[C@@H]2C1` [CDDO, 2-cyano-3,12-dioxooleane-1,9(11)-dien-28-oic acid], for which the “expression of HO-1” value with heme oxygenase-1 (HO-1) is recorded as “rapidly increase the expression of the cytoprotective heme oxygenase-1 (HO-1) enzyme”.
